Article PMC5905968, “Evaluation of the fusion inhibitor P3 peptide as a potential microbicide to prevent HIV transmission in women” (PLoS ONE, 2018)

Experiments:
[1] = system: vaginal epithelium of BALB/c mice; test: BALB/c mice vaginal irritation test with histological score; assay type: in vivo; design: key to Epithelial lesion / Inflammatory infiltrate / Vascular congestion / Edema/fibrosis / Total Score: 0 (no change) when no injury or the observed changes were within normal range; 1 (minimum) when changes were sparse but exceeded those considered normal; 2 (light) when injuries were identifiable but with no severity; 3 (moderate) for significant injury that could increase in severity; 4 (very serious) for very serious injuries that occupy most of the analyzed tissue; details: for Edema/fibrosis / Epithelial lesion / Inflammatory infiltrate / Vascular congestion / Total Score: 7 days; for Total Score: sum of the four lesion scores
Protocol: Female BALB/c mice (6–8 weeks-old) (Charles River Laboratories, Wilmington, MA) were pretreated subcutaneously with 2mg of medroxyprogesterone acetate (Depo-Provera; Pfizer, NY, USA) in PBS (Lonza, Verviers, Belgium). After five days, 30μl of test formulation with different doses of P3 diluted in PBS was applied intravaginally daily for 7 days by vaginal gavage to animals previously anesthetized with isoflurane (Forane, Abbott, Madrid). Controls included mice that received PBS (placebo group) and 3% nonoxynol-9 (N9) in PBS (irritation control group). On the eighth day, mice were sacrificed and genital tract tissue were extracted and fixed in 4% paraformaldehyde for histological analysis. The animals were distributed in groups of three mice each: group placebo only treated with PBS (1–3), group A treated with dose of 0.06mg/day ([…]) of P3 in PBS (4–6), group B treated with dose of 0.2mg/day (1522.7 μM) of P3 in PBS (7–9), group C treated with dose of 0.4mg/day (3045.3 μM) of P3 in PBS (10–12) and group irritation control treated with 3% N9 in PBS (13–15).
The presence of histological lesions in the mouse vaginas was evaluated with hematoxylin-eosin staining. Samples were embedded in paraffin by submersion in increasing concentrations of ethanol in water (Rectapur, VWR, England), two baths of xylene (Analar (VWR, England) and another of paraffin, before being placed in a paraffin mold. Subsequently, they were cut using a semimotorized microtome (RM2145 Leica, Germany) and processed for staining. For dewaxing, samples were submersed into two baths of xylene solution (10 min) and three baths in descending order of ethanol (100%, 90% and 70%) (5 min), before being stained with hematoxylin (Merck, Germany) for 5 min and eosin (Merck, Germany) for another 5 min. Post-eosin staining dehydration was performed with passages in increasing concentrations of ethanol (70%, 90% and 100%) and a bath of xylene solution. Finally, they were mounted with D.P.X. (Prolabo, VWR, Spain).
The existence of injury in vaginal epithelium, inflammatory infiltrate, vascular congestion and/or edema in the submucosa was evaluated in each biological sample. The values (score) assigned for each of these lesions were: 0 (no change) when no injury or the observed changes were within normal range; 1 (minimum) when changes were sparse but exceeded those considered normal; 2 (light) when injuries were identifiable but with no severity; 3 (moderate) for significant injury that could increase in severity; 4 (very serious) for very serious injuries that occupy most of the analyzed tissue. These values were added up and determined the level of vaginal irritation as minimum 1–4, average 5–8, moderate 9–11 and severe 12–16 [34].

[2] = system: Pseudomonas aeruginosa (clinical strain); test: Anti-bacterial activity, MIC by agar diffusion; assay type: cell-based; details: disks, Mueller-Hinton agar, 37°C, maximum concentration tested 228.4 μM
Protocol: (§1) Anti-bacterial activity of P3 was determined according to CLSI guidelines. The following bacteria were used: reference strains E. coli ATCC 10536, Staphylococcus aureus ATCC 6538, Bacillus subtilis ATCC 6633 and Enterococcus faecalis ATCC 29212; clinical strains of E. coli and Pseudomonas aeruginosa isolated in our laboratory; and strains of Lactobacillus rhamnosus and Lactobacillus plantarum also isolated in our laboratory. The Minimum Inhibitory Concentration (MIC) was determined by the agar diffusion method, in plates of Mueller-Hinton agar or Rogosa agar (for Lactobacilli). Briefly, 10^8cfu/ml bacterial suspensions were prepared in sterile water and spread in the culture media. Sterile disks containing different concentrations of P3 were placed on the inoculated surface. Plates were incubated at 37°C for 24h or 48h. Lactobacilli were incubated at microaerophilic conditions. A negative control made of sterile water was used. Disks of amoxicillin and imipenem were used as positive controls.

Lactobacillus plantarum = test: Anti-bacterial activity, MIC by agar diffusion; assay type: cell-based; details: disks, Rogosa agar, 37°C, microaerophilic, maximum concentration tested 228.4 μM
Protocol: as §1

[3] = system: Enterococcus faecalis ATCC 29212; test: Anti-bacterial activity, MIC by agar diffusion; assay type: cell-based; details: disks, Mueller-Hinton agar, 37°C, maximum concentration tested 228.4 μM
Protocol: as §1

Lactobacillus rhamnosus = test: Anti-bacterial activity, MIC by agar diffusion; assay type: cell-based; details: disks, Rogosa agar, 37°C, microaerophilic, maximum concentration tested 228.4 μM
Protocol: as §1

E. coli ATCC 10536 = test: Anti-bacterial activity, MIC by agar diffusion; assay type: cell-based; details: disks, Mueller-Hinton agar, 37°C, maximum concentration tested 228.4 μM
Protocol: as §1

[4] = system: E. coli (clinical strain); test: Anti-bacterial activity, MIC by agar diffusion; assay type: cell-based; details: disks, Mueller-Hinton agar, 37°C, maximum concentration tested 228.4 μM
Protocol: as §1

[5] = system: Staphylococcus aureus ATCC 6538; test: Anti-bacterial activity, MIC by agar diffusion; assay type: cell-based; details: disks, Mueller-Hinton agar, 37°C, maximum concentration tested 228.4 μM
Protocol: as §1

[6] = system: Bacillus subtilis ATCC 6633; test: Anti-bacterial activity, MIC by agar diffusion; assay type: cell-based; details: disks, Mueller-Hinton agar, 37°C, maximum concentration tested 228.4 μM
Protocol: as §1

[7] = 456 μM/day P3 in PBS intravaginally, mouse 4
[8] = 456 μM/day P3 in PBS intravaginally, mouse 5
[9] = 456 μM/day P3 in PBS intravaginally, mouse 6
[10] = 1522.7 μM/day P3 in PBS intravaginally, mouse 7
[11] = 1522.7 μM/day P3 in PBS intravaginally, mouse 8
[12] = 1522.7 μM/day P3 in PBS intravaginally, mouse 9
[13] = 3045.3 μM/day P3 in PBS intravaginally, mouse 10
[14] = 3045.3 μM/day P3 in PBS intravaginally, mouse 11
[15] = 3045.3 μM/day P3 in PBS intravaginally, mouse 12

CC[C@H](C)[C@H](NC(=O)[C@H](CC(N)=O)NC(=O)[C@H](C)NC(=O)[C@H](CCC(=O)O)NC(=O)[C@H](CC(C)C)NC(=O)[C@H](Cc1ccc(O)cc1)NC(=O)[C@H](CCCNC(=N)N)NC(=O)[C@@H](NC(=O)[C@H](CCC(N)=O)NC(=O)[C@H](CCC(N)=O)NC(=O)[C@H](CCC(=O)O)NC(=O)[C@H](Cc1c[nH]c2ccccc12)NC(=O)[C@H](CCC(=O)O)NC(=O)[C@H](CCC(N)=O)NC(=O)[C@H](Cc1c[nH]c2ccccc12)NC(C)=O)C(C)C)C(=O)N[C@@H](CO)C(=O)N[C@@H](CCC(N)=O)C(=O)N[C@@H](CCCNC(=N)N)C(=O)N[C@@H](CC(C)C)C(=O)N[C@@H](CCC(=O)O)C(=O)N[C@@H](CCC(N)=O)C(=O)N[C@@H](C)C(=O)N[C@@H](CCC(N)=O)C(=O)N[C@H](C(=O)N[C@@H](CCC(N)=O)C(=O)N[C@@H](CCC(N)=O)C(=O)N[C@@H](CCC(=O)O)C(=O)N[C@@H](CCCCN)C(=O)N[C@@H](CC(N)=O)C(=O)N[C@@H](CCSC)C(=O)N[C@@H](Cc1ccc(O)cc1)C(=O)N[C@@H](CCC(=O)O)C(=O)N[C@@H](CC(C)C)C(=O)N[C@@H](CCC(N)=O)C(N)=O)[C@@H](C)CC [P3]
1: Epithelial lesion [1, 7] | Vascular congestion [1, 7] | Edema/fibrosis [1, 8] | Epithelial lesion [1, 8] | Inflammatory infiltrate [1, 8] | Epithelial lesion [1, 10] | Inflammatory infiltrate [1, 10] | Vascular congestion [1, 10] | Vascular congestion [1, 11] | Total Score [1, 11] | Vascular congestion [1, 14] | Edema/fibrosis [1, 15]
> 228.4 µM: MIC [2] | MIC (Lactobacillus plantarum) | MIC [3] | MIC (Lactobacillus rhamnosus) | MIC (E. coli ATCC 10536) | MIC [4] | MIC [5] | MIC [6]
3: Total Score [1, 8] | Total Score [1, 10] | Inflammatory infiltrate [1, 13] | Vascular congestion [1, 13] | Total Score [1, 14]
4: Total Score [1, 12] | Epithelial lesion [1, 13] | Epithelial lesion [1, 15]
2: Total Score [1, 7] | Inflammatory infiltrate [1, 12] | Vascular congestion [1, 12] | Epithelial lesion [1, 14] | Inflammatory infiltrate [1, 15] | Vascular congestion [1, 15]
minimal or even absent: injuries (histology) ([1]; group A, 0.06 mg/day (456.8 μM) P3, 7 days)
0: Edema/fibrosis [1, 7] | Inflammatory infiltrate [1, 7] | Vascular congestion [1, 8] | Edema/fibrosis [1, 9] | Epithelial lesion [1, 9] | Inflammatory infiltrate [1, 9] | Vascular congestion [1, 9] | Total Score [1, 9] | Edema/fibrosis [1, 10] | Edema/fibrosis [1, 11] | Epithelial lesion [1, 11] | Inflammatory infiltrate [1, 11] | Edema/fibrosis [1, 12] | Epithelial lesion [1, 12] | Edema/fibrosis [1, 13] | Edema/fibrosis [1, 14] | Inflammatory infiltrate [1, 14]
moderate (moderate 9–11): score of vaginal irritation ([1]; group C, 0.4 mg/day (3045.3 μM) P3, 7 days, mice 10 and 12)
minimal: level of irritation of the vaginal wall ([1]; group B, 0.2 mg/day (1522.7 μM) P3, 7 days) | irritation of the vaginal epithelium ([1]; group C, 0.4 mg/day (3045.3 μM) P3, 7 days, the other mouse (sample 11))
